The results in this text go back to ChEMBL document CHEMBL1133177, “Application of similarity matrices and genetic neural networks in quantitative structure-activity relationships of 2- or 4-(4-Methylpiperazino)pyrimidines: 5-HT(2A) receptor antagonists” (J Med Chem, 2000).

pKi: −log10 of the molar value.

Test [1] concerns the target T1, 5-hydroxytryptamine receptor 2A (Rattus norvegicus, UniProt P14842). Briefly: Affinity for 5-hydroxytryptamine 2A receptor in rat brain cortex by ability to displace [3H]ketanserin. Type of test: tissue-based.
Test [2] has as its target T1, 5-hydroxytryptamine receptor 2A. Put plainly: Affinity 5-hydroxytryptamine 2A receptor of the rat brain cortex was assessed on the basis of their ability to displace [3H]ketanserin.
Test [3] has the same target. Briefly: (§1) Affinity at 5-hydroxytryptamine 2A receptor of the rat brain cortex was assessed on the basis of their ability to displace [3H]ketanserin.
Test [4] shares this target. The description is as §1. This is another data set of the same source.

T1 sequence (P14842 whole entry): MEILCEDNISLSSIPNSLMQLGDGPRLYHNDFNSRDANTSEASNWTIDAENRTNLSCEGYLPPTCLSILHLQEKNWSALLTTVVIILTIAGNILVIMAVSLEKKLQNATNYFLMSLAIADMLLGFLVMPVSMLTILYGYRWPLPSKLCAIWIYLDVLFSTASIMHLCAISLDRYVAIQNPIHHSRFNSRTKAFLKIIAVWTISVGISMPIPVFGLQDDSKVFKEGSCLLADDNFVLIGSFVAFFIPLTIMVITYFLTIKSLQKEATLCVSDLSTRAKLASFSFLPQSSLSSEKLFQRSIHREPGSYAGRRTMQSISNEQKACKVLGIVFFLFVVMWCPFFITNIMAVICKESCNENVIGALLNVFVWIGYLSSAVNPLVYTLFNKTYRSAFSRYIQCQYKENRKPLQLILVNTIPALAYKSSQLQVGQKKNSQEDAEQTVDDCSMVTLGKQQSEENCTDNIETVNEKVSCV

For orientation: pKi means the Ki on a negative log10 scale, so that one unit is a factor of ten. In test [1], `CN1CCN(c2nc(-c3ccoc3)cc(-c3cc4ccccc4s3)n2)CC1` showed a pKi of 7.26.
In turn, `CN1CCN(c2nc(-c3ccsc3)cc(-c3cccs3)n2)CC1` gave a negative-log Ki (pKi) in test [1] of 7.68.
Still for that read-out and setting: the value for `CN1CCN(c2nc(-c3ccco3)cc(-c3cc4ccccc4o3)n2)CC1` was 6.96.
`CN1CCN(c2nc(-c3ccco3)cc(-c3cc4ccccc4s3)n2)CC1`: the negative logarithm of the Ki (pKi) in test [1] is 7.43.
With `CN1CCN(c2nc(Cl)cc(-c3ccoc3)n2)CC1`, the pKi in test [2] and in test [1] was 7.39 in each case.
Regarding `Cc1ccc(-c2cc(N3CCN(C)CC3)nc(Cl)n2)cc1`, the pKi in test [3] and in test [4] was 5.37 throughout.
Turning to `CN1CCN(c2nc(-c3ccco3)cc(-c3cccs3)n2)CC1`, the negative-log Ki (pKi) in test [1] was 7.43.
In the case of `CN1CCN(c2cc(-c3ccco3)nc(Cl)n2)CC1`, the negative-log Ki (pKi) in test [3] and in test [4] was 5.22 in each case.
Consider `CN1CCN(c2cc(-n3ccnc3)ncn2)CC1`, for which the pKi in test [3] and in test [4] was below 5.00 each time.
On to `Cc1c(-c2cccs2)nc(N2CCN(C)CC2)nc1-c1cccs1`, for which the pKi in test [1] is 7.77.
Take `CN1CCN(c2cc(-c3cccs3)nc(Cl)n2)CC1`: the negative-log Ki (pKi) in test [3] and in test [4] was 5.57 in each case.
With `CN1CCN(c2nc(Cl)cc(-c3cccs3)n2)CC1`, the negative-log Ki (pKi) in test [3] is 6.45; in test [4], 6.46.
`CN1CCN(c2nccc(-c3ccsc3)n2)CC1` had a pKi in test [1] of 6.72.
Take `Cc1ccc(-c2cc(Cl)nc(N3CCN(C)CC3)n2)cc1`: the negative logarithm of the Ki (pKi) in test [2] and in test [1] was 6.24 throughout.
For the compound `CN1CCN(c2nccc(-n3ccnc3)n2)CC1`, the negative-log Ki (pKi) in test [2] and in test [1] was 6.42 in each case.
For the compound `CN1CCN(c2nc(-c3cc4ccccc4o3)cc(-c3cccn3C)n2)CC1`, in test [1], the negative logarithm of the Ki (pKi) was 6.87.
